Results reported in ChEMBL document CHEMBL5291721, “A preclinical secondary pharmacology resource illuminates target-adverse drug reaction associations of marketed drugs” (Nat Commun, 2023).

How the values were obtained:
[1] = molecular target: Acetylcholinesterase (Homo sapiens, UniProt P22303); assay type: functional
[2] = molecular target: T1, Alpha-2A adrenergic receptor (Homo sapiens, UniProt P08913)
T1 sequence (P08913 whole entry): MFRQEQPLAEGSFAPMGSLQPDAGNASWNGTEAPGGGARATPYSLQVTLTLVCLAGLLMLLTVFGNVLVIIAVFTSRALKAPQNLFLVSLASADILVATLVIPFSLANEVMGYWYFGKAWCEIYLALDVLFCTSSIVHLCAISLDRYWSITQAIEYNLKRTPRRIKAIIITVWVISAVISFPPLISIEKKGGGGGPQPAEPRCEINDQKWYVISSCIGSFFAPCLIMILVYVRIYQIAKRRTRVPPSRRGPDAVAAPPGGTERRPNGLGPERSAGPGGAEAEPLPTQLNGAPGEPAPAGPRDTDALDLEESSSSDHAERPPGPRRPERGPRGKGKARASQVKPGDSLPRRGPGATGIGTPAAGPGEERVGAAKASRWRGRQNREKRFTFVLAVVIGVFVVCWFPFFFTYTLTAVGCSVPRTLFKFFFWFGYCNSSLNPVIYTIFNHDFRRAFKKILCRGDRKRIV

[3] = molecular target: T2, Muscarinic acetylcholine receptor M2 (Homo sapiens, UniProt P08172)
T2 sequence (P08172 whole entry): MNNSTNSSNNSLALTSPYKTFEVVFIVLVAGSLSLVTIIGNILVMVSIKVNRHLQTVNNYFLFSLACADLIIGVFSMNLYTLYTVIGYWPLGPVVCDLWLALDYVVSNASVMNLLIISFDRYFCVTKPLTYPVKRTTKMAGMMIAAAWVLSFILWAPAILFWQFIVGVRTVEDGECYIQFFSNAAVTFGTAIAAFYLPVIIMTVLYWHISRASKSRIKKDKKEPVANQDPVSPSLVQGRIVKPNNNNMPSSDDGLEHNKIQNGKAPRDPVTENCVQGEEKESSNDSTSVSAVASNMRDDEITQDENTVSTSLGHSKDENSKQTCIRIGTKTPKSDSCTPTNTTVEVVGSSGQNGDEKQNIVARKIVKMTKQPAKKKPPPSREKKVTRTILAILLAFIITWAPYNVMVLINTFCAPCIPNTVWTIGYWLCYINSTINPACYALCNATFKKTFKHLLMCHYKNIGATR

[4] = molecular target: Prothrombin (Homo sapiens, UniProt P00734); assay type: functional
[5] = molecular target: Histamine H3 receptor (Homo sapiens, UniProt Q9Y5N1)
[6] = molecular target: T3, 5-hydroxytryptamine receptor 1A (Homo sapiens, UniProt P08908)
T3 sequence (P08908 whole entry): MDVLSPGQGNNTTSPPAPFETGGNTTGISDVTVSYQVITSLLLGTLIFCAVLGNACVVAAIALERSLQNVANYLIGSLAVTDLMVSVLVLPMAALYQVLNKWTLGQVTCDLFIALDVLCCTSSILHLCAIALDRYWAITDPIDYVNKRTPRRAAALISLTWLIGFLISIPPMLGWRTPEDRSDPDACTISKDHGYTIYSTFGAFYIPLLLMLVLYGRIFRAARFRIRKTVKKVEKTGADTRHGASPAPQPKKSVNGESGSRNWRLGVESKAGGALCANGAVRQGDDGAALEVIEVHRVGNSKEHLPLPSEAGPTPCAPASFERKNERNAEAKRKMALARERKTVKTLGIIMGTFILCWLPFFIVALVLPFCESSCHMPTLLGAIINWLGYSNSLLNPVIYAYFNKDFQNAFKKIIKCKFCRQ

[7] = molecular target: 5-hydroxytryptamine receptor 2B (Homo sapiens, UniProt P41595); assay type: functional, cell-based
[8] = molecular target: Voltage-gated inwardly rectifying potassium channel KCNH2 (Homo sapiens, UniProt Q12809); assay type: functional
[9] = molecular target: T4, Amine oxidase [flavin-containing] A (Homo sapiens, UniProt P21397); assay type: functional
T4 sequence (P21397 whole entry): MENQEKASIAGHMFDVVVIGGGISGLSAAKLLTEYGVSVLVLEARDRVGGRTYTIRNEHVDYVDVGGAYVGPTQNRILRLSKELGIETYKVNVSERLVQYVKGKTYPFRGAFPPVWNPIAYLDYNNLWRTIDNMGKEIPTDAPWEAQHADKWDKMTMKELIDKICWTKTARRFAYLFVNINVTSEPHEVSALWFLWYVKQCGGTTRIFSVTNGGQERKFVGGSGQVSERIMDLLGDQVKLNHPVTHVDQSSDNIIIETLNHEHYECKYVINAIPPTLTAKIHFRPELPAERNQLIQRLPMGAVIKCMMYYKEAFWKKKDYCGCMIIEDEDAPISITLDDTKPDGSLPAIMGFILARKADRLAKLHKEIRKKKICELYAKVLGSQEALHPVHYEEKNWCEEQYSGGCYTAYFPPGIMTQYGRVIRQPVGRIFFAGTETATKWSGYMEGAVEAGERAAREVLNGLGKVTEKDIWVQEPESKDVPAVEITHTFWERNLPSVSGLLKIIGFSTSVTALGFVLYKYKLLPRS

[10] = molecular target: cGMP-inhibited 3',5'-cyclic phosphodiesterase 3A (Homo sapiens, UniProt Q14432); assay type: functional
[11] = molecular target: 3',5'-cyclic-AMP phosphodiesterase 4A (Homo sapiens, UniProt P27815); assay type: functional
[12] = molecular target: Sodium-dependent dopamine transporter (Homo sapiens, UniProt Q01959)
[13] = molecular target: T5, Thromboxane A2 receptor (Homo sapiens, UniProt P21731); assay type: functional, cell-based
T5 sequence (P21731 whole entry): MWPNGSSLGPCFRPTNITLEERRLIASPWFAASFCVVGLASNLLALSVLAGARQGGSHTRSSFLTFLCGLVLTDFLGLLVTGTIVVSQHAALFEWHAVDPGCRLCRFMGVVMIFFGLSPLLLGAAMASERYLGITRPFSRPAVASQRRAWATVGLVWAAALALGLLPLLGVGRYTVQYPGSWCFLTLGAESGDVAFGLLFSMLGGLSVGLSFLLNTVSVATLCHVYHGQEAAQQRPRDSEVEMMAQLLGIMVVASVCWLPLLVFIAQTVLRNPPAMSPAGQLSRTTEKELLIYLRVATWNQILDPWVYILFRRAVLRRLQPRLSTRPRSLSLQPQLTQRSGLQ

[14] = molecular target: T5, Thromboxane A2 receptor; assay type: functional, cell-based; remark: listed apart in the source
Also: assay procedure not described here.

Chain of Acetylcholinesterase (P22303 whole entry): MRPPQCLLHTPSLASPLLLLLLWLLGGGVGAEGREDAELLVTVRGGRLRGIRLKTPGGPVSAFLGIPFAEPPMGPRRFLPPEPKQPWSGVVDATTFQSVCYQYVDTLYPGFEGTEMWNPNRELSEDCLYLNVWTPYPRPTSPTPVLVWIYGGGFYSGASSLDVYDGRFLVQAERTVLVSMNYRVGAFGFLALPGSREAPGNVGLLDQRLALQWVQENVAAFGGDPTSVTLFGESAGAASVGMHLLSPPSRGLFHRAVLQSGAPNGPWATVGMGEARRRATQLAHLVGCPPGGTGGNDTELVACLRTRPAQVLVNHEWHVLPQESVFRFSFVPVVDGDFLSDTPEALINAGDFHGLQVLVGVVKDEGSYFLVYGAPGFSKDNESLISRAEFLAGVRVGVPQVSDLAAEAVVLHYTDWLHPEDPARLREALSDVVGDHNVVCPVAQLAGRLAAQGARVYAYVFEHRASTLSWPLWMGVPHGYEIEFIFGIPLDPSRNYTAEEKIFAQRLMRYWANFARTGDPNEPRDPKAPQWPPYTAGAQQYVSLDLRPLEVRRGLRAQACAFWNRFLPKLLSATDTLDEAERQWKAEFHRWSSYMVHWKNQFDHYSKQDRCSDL
Chain of Sodium-dependent dopamine transporter (Q01959 whole entry): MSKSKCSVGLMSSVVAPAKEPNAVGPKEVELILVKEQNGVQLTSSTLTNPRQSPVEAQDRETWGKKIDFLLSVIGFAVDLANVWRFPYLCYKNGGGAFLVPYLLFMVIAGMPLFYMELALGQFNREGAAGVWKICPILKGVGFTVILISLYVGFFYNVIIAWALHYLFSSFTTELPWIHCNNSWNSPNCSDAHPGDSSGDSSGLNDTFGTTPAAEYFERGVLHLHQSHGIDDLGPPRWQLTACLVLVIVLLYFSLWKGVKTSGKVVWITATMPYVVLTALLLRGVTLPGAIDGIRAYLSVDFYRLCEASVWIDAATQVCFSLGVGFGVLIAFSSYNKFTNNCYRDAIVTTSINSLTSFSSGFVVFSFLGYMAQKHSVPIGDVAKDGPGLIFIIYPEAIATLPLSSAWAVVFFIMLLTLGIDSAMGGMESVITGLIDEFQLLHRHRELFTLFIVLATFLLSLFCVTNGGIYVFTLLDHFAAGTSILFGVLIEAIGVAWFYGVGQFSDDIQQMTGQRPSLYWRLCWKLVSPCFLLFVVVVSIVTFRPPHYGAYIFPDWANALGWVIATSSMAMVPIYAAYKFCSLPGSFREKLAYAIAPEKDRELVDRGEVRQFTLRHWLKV
Chain of 5-hydroxytryptamine receptor 2B (P41595 whole entry): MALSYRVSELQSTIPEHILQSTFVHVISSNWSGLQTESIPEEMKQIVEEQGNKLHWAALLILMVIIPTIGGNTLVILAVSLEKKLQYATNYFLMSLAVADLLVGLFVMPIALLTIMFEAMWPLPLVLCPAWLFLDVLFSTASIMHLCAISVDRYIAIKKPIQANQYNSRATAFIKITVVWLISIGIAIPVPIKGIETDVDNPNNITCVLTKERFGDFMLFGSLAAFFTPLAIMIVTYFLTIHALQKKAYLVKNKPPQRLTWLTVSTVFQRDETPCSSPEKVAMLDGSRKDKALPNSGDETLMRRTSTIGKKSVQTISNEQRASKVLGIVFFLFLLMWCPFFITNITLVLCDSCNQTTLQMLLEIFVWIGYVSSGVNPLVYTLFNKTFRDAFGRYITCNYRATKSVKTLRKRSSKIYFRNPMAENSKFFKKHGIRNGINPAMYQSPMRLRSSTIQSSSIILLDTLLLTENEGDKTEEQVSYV
Chain of Histamine H3 receptor (Q9Y5N1 whole entry): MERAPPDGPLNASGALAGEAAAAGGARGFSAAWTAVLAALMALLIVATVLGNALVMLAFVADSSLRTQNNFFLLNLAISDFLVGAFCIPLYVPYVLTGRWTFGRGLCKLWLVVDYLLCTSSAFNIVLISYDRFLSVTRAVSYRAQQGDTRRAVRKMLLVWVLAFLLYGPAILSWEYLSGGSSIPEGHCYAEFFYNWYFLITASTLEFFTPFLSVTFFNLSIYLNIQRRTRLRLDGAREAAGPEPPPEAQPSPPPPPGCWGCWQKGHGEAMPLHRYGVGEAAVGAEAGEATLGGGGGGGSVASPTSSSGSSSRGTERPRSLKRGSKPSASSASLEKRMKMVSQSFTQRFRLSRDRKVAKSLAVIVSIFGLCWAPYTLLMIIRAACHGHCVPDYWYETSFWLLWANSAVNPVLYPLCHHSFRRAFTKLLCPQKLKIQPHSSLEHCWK
Chain of 3',5'-cyclic-AMP phosphodiesterase 4A (P27815 whole entry): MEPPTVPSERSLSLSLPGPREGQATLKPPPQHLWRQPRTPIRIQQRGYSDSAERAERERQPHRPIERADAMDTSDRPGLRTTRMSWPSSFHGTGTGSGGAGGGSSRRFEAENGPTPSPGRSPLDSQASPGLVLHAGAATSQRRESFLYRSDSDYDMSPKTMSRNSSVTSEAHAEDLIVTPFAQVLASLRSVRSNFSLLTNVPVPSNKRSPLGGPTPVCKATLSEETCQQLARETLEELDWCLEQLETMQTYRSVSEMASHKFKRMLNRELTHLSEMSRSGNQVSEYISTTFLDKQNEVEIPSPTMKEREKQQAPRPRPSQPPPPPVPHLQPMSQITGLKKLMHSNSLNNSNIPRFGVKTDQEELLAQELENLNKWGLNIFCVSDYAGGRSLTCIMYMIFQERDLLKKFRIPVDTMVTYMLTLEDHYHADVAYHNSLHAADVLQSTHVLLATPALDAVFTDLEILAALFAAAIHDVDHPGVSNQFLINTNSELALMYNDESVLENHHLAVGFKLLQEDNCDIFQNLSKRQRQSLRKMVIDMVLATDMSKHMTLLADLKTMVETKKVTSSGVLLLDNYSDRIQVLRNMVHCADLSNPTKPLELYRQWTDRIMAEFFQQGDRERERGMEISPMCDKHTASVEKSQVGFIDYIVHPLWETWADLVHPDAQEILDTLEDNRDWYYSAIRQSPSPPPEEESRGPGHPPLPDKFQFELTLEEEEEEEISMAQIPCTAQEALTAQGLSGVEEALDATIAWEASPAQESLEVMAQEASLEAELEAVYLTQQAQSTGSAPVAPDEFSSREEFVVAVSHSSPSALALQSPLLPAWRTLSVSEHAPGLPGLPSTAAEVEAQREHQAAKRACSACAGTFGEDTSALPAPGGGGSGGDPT
Chain of cGMP-inhibited 3',5'-cyclic phosphodiesterase 3A (Q14432 whole entry): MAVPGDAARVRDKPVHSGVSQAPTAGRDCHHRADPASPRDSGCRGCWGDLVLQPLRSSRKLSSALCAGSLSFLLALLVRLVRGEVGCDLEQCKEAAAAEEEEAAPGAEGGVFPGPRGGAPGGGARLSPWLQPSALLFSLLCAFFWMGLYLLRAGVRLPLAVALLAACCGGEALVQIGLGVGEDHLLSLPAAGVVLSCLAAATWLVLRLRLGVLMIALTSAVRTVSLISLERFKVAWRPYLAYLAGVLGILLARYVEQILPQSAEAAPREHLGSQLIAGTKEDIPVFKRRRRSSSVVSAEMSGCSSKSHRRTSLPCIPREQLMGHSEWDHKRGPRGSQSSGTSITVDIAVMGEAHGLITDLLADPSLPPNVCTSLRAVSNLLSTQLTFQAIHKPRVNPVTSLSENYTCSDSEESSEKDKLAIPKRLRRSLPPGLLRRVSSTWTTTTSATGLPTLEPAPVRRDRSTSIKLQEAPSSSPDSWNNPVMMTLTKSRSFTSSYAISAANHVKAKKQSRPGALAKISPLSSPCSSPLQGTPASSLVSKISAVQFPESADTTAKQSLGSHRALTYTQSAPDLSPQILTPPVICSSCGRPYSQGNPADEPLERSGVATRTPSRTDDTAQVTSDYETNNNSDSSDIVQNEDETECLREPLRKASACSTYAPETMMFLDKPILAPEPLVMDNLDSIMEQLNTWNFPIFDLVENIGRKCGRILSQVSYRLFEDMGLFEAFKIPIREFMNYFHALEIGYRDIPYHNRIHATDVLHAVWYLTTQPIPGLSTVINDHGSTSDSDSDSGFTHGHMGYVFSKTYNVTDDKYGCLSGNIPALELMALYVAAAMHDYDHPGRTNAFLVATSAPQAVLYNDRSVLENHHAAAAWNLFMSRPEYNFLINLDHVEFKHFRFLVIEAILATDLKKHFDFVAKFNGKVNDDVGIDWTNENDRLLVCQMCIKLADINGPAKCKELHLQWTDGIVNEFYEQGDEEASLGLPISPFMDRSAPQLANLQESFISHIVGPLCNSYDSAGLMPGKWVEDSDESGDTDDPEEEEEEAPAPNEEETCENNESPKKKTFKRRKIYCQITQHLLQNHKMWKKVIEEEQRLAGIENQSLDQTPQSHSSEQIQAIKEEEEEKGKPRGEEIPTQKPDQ

SMILES	AC50 [1] [µM]	AC50 [2] [µM]	AC50 [3] [µM]	AC50 [4] [µM]	AC50 [5] [µM]	AC50 [6] [µM]	AC50 [7] [µM]	AC50 [8] [µM]	AC50 [9] [µM]	AC50 [10] [µM]	AC50 [11] [µM]	AC50 [12] [µM]	AC50 [13] [µM]	AC50 [14] [µM]
Cc1cc2c(cc1S(N)(=O)=O)S(=O)(=O)CCC2	> 30	> 30	> 30	> 30	> 30	> 30	> 30	> 30	> 30	> 30	> 30	> 30	> 30	> 30
O=C(O)[C@@H]1C[C@@H](O)CN1	> 30	> 30	> 30	> 30	> 30	> 30	> 30	> 30	> 30	> 30	> 30	> 30	> 30	> 30
NC(=O)[C@@H]1CC[C@@H]2CN1C(=O)N2OS(=O)(=O)O [AVIBACTAM]	> 30	> 30	> 30	> 30	> 30	> 30	> 30	> 30	> 30	> 30	> 30	> 30	> 30	> 30
CC(O)(CS(=O)(=O)c1ccc(F)cc1)C(=O)Nc1ccc(C#N)c(C(F)(F)F)c1 (centres undefined) [BICALUTAMIDE]	> 30	> 30	> 30	> 30	> 30	> 30	> 30	> 30	> 30	> 30	> 30	> 30	> 10	> 3
CC(C)(C)NC(=O)N[C@H](C(=O)N1C[C@H]2[C@@H]([C@H]1C(=O)NC(CC1CCC1)C(=O)C(N)=O)C2(C)C)C(C)(C)C (some centres undefined) [BOCEPREVIR]	> 30	> 30	> 30	> 30	> 30	> 30	> 30	> 30	> 30	> 30	> 30	> 30	> 30	> 30
NC[C@H]1CC[C@H](C(=O)Oc2ccc(CCC(=O)O)cc2)CC1 [CETRAXATE]	> 30	> 30	> 30	4.35	> 30	> 30	> 30	> 30	> 30	> 30	> 30	> 30	> 30	> 30
